Results on 24 compounds are retold here after PubChem BioAssay (NCI).

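Exposure lasted 48 hours, with cells grown in 96-well plates and compounds tested at five concentrations. TGI: total growth inhibition.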 Some results are limits rather than exact numbers.

One assay deals with OVCAR-3 ovarian. In words: NCI tumour cell line growth inhibition, 48 h.
`COc1ccc(C2CC(c3c(O)ccc4ccccc34)=NN2c2ccc([N+](=O)[O-])cc2[N+](=O)[O-])cc1OC` (centres undefined) displayed a TGI of 58.3 µM.

`S=C(N/N=C\C=N/NC(=S)N1CCCCC1)N1CCCCC1` had a TGI of 78.2 µM.

Turning to `O=C(O)CSc1nnc(COc2ccc(Cl)cc2)n1-c1ccccc1`, the TGI is more than 100 µM.

The compound `CN(C)CCCOc1nc2c(c(=O)n(C)c(=O)n2C)n1C` (tested in a mixture with another compound) displayed a TGI of more than 100 µM.

`Cc1ccc(C(=O)Nc2ccc(CP(=O)(O)O)cc2CP(=O)(O)O)cc1NC(=O)c1cccc(N)c1` yielded a TGI of more than 100 µM.

In the case of `CC(C)(C)c1ccc2c(c1)CNCCNCc1cc(C(C)(C)C)ccc1OCC1(CO2)COc2ccc(C(C)(C)C)cc2CNCCNCc2cc(C(C)(C)C)ccc2OC1`, the TGI came out at 3.12 µM.

With `NCC1CCN(c2nc3ccccc3c3c2CCCC3)CC1`, the TGI was determined as 24.9 µM.

`CCN1CC2=C(NC(=S)NC2c2ccc(Cl)cc2)/C(=C/c2ccc(Cl)cc2)C1` (centres undefined) had a TGI of more than 100 µM.

Compound `CCOC(=O)C1Cc2[nH]c3ccccc3c2C(C)C1C` (centres undefined) displayed a TGI of 30.1 µM.

Compound `NC(=O)N/N=C(\Cc1nc2ccc(Cl)cc2[nH]c1=O)C(=O)Nc1ccc(Cl)cc1Cl` showed a TGI of more than 100 µM.

Turning to `O=C(CN1c2ccccc2Sc2ccccc21)N1CCNCC1`, the TGI was more than 100 µM.

For the compound `O=C(/C=C/c1ccc(O)c([N+](=O)[O-])c1)CC(=O)/C=C/c1ccc(O)c([N+](=O)[O-])c1`, the TGI was more than 100 µM.

With `OCC1CCCCCCCCCCC12SCCCS2` (centres undefined), the TGI was more than 100 µM.

`Cn1cc2ccccc2c1-c1nc(N)nc(F)n1` gave a TGI of more than 100 µM.

As to `CC1=C(O)C(=O)[C@@H]2O[C@@H]2C1=O`, the TGI was 17.4 µM.

In turn, `COc1ccc(-c2cc(-c3ccco3)c(C#N)c(=S)n2C2OC(COC(C)=O)C(OC(C)=O)C(OC(C)=O)C2OC(C)=O)cc1` (centres undefined) returned a TGI of 19.7 µM.

Regarding `COc1ccc(C(C#N)NNC(=O)c2ccccc2O)cc1OC` (centres undefined), the TGI was more than 100 µM.

Take `O=c1[nH]n2c(=O)cc[nH]c2c1-c1nnns1`: the TGI is more than 100 µM.

Consider `Cc1c(-c2nc3ccccc3[nH]2)c(=O)n(-c2ccccc2)n1C`, for which the TGI was more than 100 µM.

`N.N.N.O=[N+]([O-])[O-].O=[N+]([O-])[O-].O=[N+]([O-])[O-].O=[N+]([O-])[O-].[Co+3]` returned a TGI of more than 100 µM.

In the case of `Cc1nnc(Nc2ccccc2)o1`, the TGI is more than 100 µM.

Take `COc1cc(O)c(/C=N/N=C(\N)NO)c(OC)c1`: the TGI was more than 10 µM.

In a further assay the test system is A498 renal. As to the kind of experiment: NCI tumour cell line growth inhibition, 48 h.
With `COc1ccc(C2CC(c3c(O)ccc4ccccc34)=NN2c2ccc([N+](=O)[O-])cc2[N+](=O)[O-])cc1OC` (centres undefined), the TGI stood at 35.9 µM.

With `S=C(N/N=C\C=N/NC(=S)N1CCCCC1)N1CCCCC1`, the TGI was more than 100 µM.

With `O=C(O)CSc1nnc(COc2ccc(Cl)cc2)n1-c1ccccc1`, the TGI was more than 100 µM.

`CN(C)CCCOc1nc2c(c(=O)n(C)c(=O)n2C)n1C` (tested in a mixture with another compound): the TGI was more than 100 µM.

As to `Cc1ccc(C(=O)Nc2ccc(CP(=O)(O)O)cc2CP(=O)(O)O)cc1NC(=O)c1cccc(N)c1`, the TGI was more than 100 µM.

Regarding `CC(C)(C)c1ccc2c(c1)CNCCNCc1cc(C(C)(C)C)ccc1OCC1(CO2)COc2ccc(C(C)(C)C)cc2CNCCNCc2cc(C(C)(C)C)ccc2OC1`, the TGI stood at 2.83 µM.

Consider `NCC1CCN(c2nc3ccccc3c3c2CCCC3)CC1`, for which the TGI was found to be 25.7 µM.

`CCN1CC2=C(NC(=S)NC2c2ccc(Cl)cc2)/C(=C/c2ccc(Cl)cc2)C1` (centres undefined) returned a TGI of 62.1 µM.

For `CCOC(=O)C1Cc2[nH]c3ccccc3c2C(C)C1C` (centres undefined), the TGI amounted to 34.4 µM.

`NC(=O)N/N=C(\Cc1nc2ccc(Cl)cc2[nH]c1=O)C(=O)Nc1ccc(Cl)cc1Cl`: the TGI is more than 100 µM.

In the case of `O=C(CN1c2ccccc2Sc2ccccc21)N1CCNCC1`, the TGI was more than 100 µM.

`Cn1cc2ccccc2c1-c1nc(N)nc(F)n1` returned a TGI of 53.5 µM.

Take `CC1=C(O)C(=O)[C@@H]2O[C@@H]2C1=O`: the TGI stood at 17.1 µM.

For `Cc1ccc(-c2c(C#N)c(-c3ccccc3)n(NS(=O)(=O)c3ccccc3)c(=O)c2C#N)cc1`, the TGI is more than 100 µM.

As to `O=c1[nH]n2c(=O)cc[nH]c2c1-c1nnns1`, the TGI was more than 100 µM.

In the case of `N.N.N.O=[N+]([O-])[O-].O=[N+]([O-])[O-].O=[N+]([O-])[O-].O=[N+]([O-])[O-].[Co+3]`, the TGI was more than 100 µM.

Take `COc1cc(O)c(/C=N/N=C(\N)NO)c(OC)c1`: the TGI is more than 10 µM.

Another assay has as its system MDA-MB-435. As to the kind of experiment: NCI tumour cell line growth inhibition, 48 h.
The compound `COc1ccc(C2CC(c3c(O)ccc4ccccc34)=NN2c2ccc([N+](=O)[O-])cc2[N+](=O)[O-])cc1OC` (centres undefined) registered a TGI of more than 100 µM.

As for `S=C(N/N=C\C=N/NC(=S)N1CCCCC1)N1CCCCC1`, the TGI is more than 100 µM.

As for `O=C(O)CSc1nnc(COc2ccc(Cl)cc2)n1-c1ccccc1`, the TGI is more than 100 µM.

With `CN(C)CCCOc1nc2c(c(=O)n(C)c(=O)n2C)n1C` (tested in a mixture with another compound), the TGI is more than 100 µM.

Turning to `Cc1ccc(C(=O)Nc2ccc(CP(=O)(O)O)cc2CP(=O)(O)O)cc1NC(=O)c1cccc(N)c1`, the TGI was more than 100 µM.

Turning to `CC(C)(C)c1ccc2c(c1)CNCCNCc1cc(C(C)(C)C)ccc1OCC1(CO2)COc2ccc(C(C)(C)C)cc2CNCCNCc2cc(C(C)(C)C)ccc2OC1`, the TGI was 1 µM.

In turn, `NCC1CCN(c2nc3ccccc3c3c2CCCC3)CC1` yielded a TGI of 7.13 µM.

In turn, `CCN1CC2=C(NC(=S)NC2c2ccc(Cl)cc2)/C(=C/c2ccc(Cl)cc2)C1` (centres undefined) displayed a TGI of more than 100 µM.

Consider `NC(=O)N/N=C(\Cc1nc2ccc(Cl)cc2[nH]c1=O)C(=O)Nc1ccc(Cl)cc1Cl`, for which the TGI was more than 100 µM.

In turn, `O=C(CN1c2ccccc2Sc2ccccc21)N1CCNCC1` came in with a TGI of more than 100 µM.

Turning to `O=C(/C=C/c1ccc(O)c([N+](=O)[O-])c1)CC(=O)/C=C/c1ccc(O)c([N+](=O)[O-])c1`, the TGI was more than 100 µM.

`OCC1CCCCCCCCCCC12SCCCS2` (centres undefined) showed a TGI of more than 100 µM.

With `COc1ccc(-c2cc(-c3ccco3)c(C#N)c(=S)n2C2OC(COC(C)=O)C(OC(C)=O)C(OC(C)=O)C2OC(C)=O)cc1` (centres undefined), the TGI turned out to be 28.2 µM.

As for `Cc1ccc(-c2c(C#N)c(-c3ccccc3)n(NS(=O)(=O)c3ccccc3)c(=O)c2C#N)cc1`, the TGI was more than 100 µM.

As to `Cc1c(-c2nc3ccccc3[nH]2)c(=O)n(-c2ccccc2)n1C`, the TGI is more than 100 µM.

For `Cc1nnc(Nc2ccccc2)o1`, the TGI was more than 100 µM.

Take `COc1cc(O)c(/C=N/N=C(\N)NO)c(OC)c1`: the TGI is more than 10 µM.

Another assay relates to MDA-MB-231 breast. In words: NCI tumour cell line growth inhibition, 48 h.
As to `COc1ccc(C2CC(c3c(O)ccc4ccccc34)=NN2c2ccc([N+](=O)[O-])cc2[N+](=O)[O-])cc1OC` (centres undefined), the TGI was more than 68.8 µM.

For `S=C(N/N=C\C=N/NC(=S)N1CCCCC1)N1CCCCC1`, the TGI is more than 100 µM.

Compound `O=C(O)CSc1nnc(COc2ccc(Cl)cc2)n1-c1ccccc1` had a TGI of more than 100 µM.

In the case of `CN(C)CCCOc1nc2c(c(=O)n(C)c(=O)n2C)n1C` (tested in a mixture with another compound), the TGI was determined as 32.2 µM.

Take `Cc1ccc(C(=O)Nc2ccc(CP(=O)(O)O)cc2CP(=O)(O)O)cc1NC(=O)c1cccc(N)c1`: the TGI is more than 100 µM.

On to `CC(C)(C)c1ccc2c(c1)CNCCNCc1cc(C(C)(C)C)ccc1OCC1(CO2)COc2ccc(C(C)(C)C)cc2CNCCNCc2cc(C(C)(C)C)ccc2OC1`, for which the TGI is 0.623 µM.

Regarding `NCC1CCN(c2nc3ccccc3c3c2CCCC3)CC1`, the TGI amounted to 17.2 µM.

Compound `CCN1CC2=C(NC(=S)NC2c2ccc(Cl)cc2)/C(=C/c2ccc(Cl)cc2)C1` (centres undefined) had a TGI of more than 100 µM.

The compound `NC(=O)N/N=C(\Cc1nc2ccc(Cl)cc2[nH]c1=O)C(=O)Nc1ccc(Cl)cc1Cl` yielded a TGI of more than 100 µM.

Take `O=C(CN1c2ccccc2Sc2ccccc21)N1CCNCC1`: the TGI is more than 100 µM.

`O=C(/C=C/c1ccc(O)c([N+](=O)[O-])c1)CC(=O)/C=C/c1ccc(O)c([N+](=O)[O-])c1` gave a TGI of 68 µM.

Consider `COc1ccc(-c2cc(-c3ccco3)c(C#N)c(=S)n2C2OC(COC(C)=O)C(OC(C)=O)C(OC(C)=O)C2OC(C)=O)cc1` (centres undefined), for which the TGI amounted to 16.1 µM.

On to `Cc1ccc(-c2c(C#N)c(-c3ccccc3)n(NS(=O)(=O)c3ccccc3)c(=O)c2C#N)cc1`, for which the TGI was more than 100 µM.

Take `Cc1c(-c2nc3ccccc3[nH]2)c(=O)n(-c2ccccc2)n1C`: the TGI was more than 100 µM.

Compound `COc1cc(O)c(/C=N/N=C(\N)NO)c(OC)c1` returned a TGI of more than 10 µM.

The next assay relates to 786-0 renal. As to the kind of experiment: NCI tumour cell line growth inhibition, 48 h.
The compound `COc1ccc(C2CC(c3c(O)ccc4ccccc34)=NN2c2ccc([N+](=O)[O-])cc2[N+](=O)[O-])cc1OC` (centres undefined) registered a TGI of more than 100 µM.

`S=C(N/N=C\C=N/NC(=S)N1CCCCC1)N1CCCCC1`: the TGI was more than 31.6 µM.

As for `O=C(O)CSc1nnc(COc2ccc(Cl)cc2)n1-c1ccccc1`, the TGI is more than 100 µM.

Regarding `CN(C)CCCOc1nc2c(c(=O)n(C)c(=O)n2C)n1C` (tested in a mixture with another compound), the TGI was more than 100 µM.

As for `Cc1ccc(C(=O)Nc2ccc(CP(=O)(O)O)cc2CP(=O)(O)O)cc1NC(=O)c1cccc(N)c1`, the TGI was more than 100 µM.

In the case of `CC(C)(C)c1ccc2c(c1)CNCCNCc1cc(C(C)(C)C)ccc1OCC1(CO2)COc2ccc(C(C)(C)C)cc2CNCCNCc2cc(C(C)(C)C)ccc2OC1`, the TGI worked out at 0.388 µM.

The compound `NCC1CCN(c2nc3ccccc3c3c2CCCC3)CC1` gave a TGI of 12.3 µM.

In the case of `CCN1CC2=C(NC(=S)NC2c2ccc(Cl)cc2)/C(=C/c2ccc(Cl)cc2)C1` (centres undefined), the TGI was more than 100 µM.

For the compound `CCOC(=O)C1Cc2[nH]c3ccccc3c2C(C)C1C` (centres undefined), the TGI was 28.2 µM.

As to `NC(=O)N/N=C(\Cc1nc2ccc(Cl)cc2[nH]c1=O)C(=O)Nc1ccc(Cl)cc1Cl`, the TGI was more than 100 µM.

`O=C(CN1c2ccccc2Sc2ccccc21)N1CCNCC1` came in with a TGI of more than 100 µM.

On to `O=C(/C=C/c1ccc(O)c([N+](=O)[O-])c1)CC(=O)/C=C/c1ccc(O)c([N+](=O)[O-])c1`, for which the TGI was more than 100 µM.

As to `OCC1CCCCCCCCCCC12SCCCS2` (centres undefined), the TGI was more than 100 µM.

In turn, `Cn1cc2ccccc2c1-c1nc(N)nc(F)n1` yielded a TGI of more than 100 µM.

`CC(O[Si](c1ccccc1)(c1ccccc1)C(C)(C)C)[C@H](NC(=O)OC(C)(C)C)C(=O)O[Si](c1ccccc1)(c1ccccc1)C(C)(C)C` (some centres undefined) gave a TGI of 25.9 µM.

Regarding `COc1ccc(-c2cc(-c3ccco3)c(C#N)c(=S)n2C2OC(COC(C)=O)C(OC(C)=O)C(OC(C)=O)C2OC(C)=O)cc1` (centres undefined), the TGI turned out to be 10.6 µM.

As to `Cc1ccc(-c2c(C#N)c(-c3ccccc3)n(NS(=O)(=O)c3ccccc3)c(=O)c2C#N)cc1`, the TGI was more than 100 µM.

Consider `COc1ccc(C(C#N)NNC(=O)c2ccccc2O)cc1OC` (centres undefined), for which the TGI was more than 100 µM.

Turning to `O=c1[nH]n2c(=O)cc[nH]c2c1-c1nnns1`, the TGI is more than 100 µM.

As for `Cc1c(-c2nc3ccccc3[nH]2)c(=O)n(-c2ccccc2)n1C`, the TGI is more than 100 µM.

`N.N.N.O=[N+]([O-])[O-].O=[N+]([O-])[O-].O=[N+]([O-])[O-].O=[N+]([O-])[O-].[Co+3]` showed a TGI of more than 100 µM.

`Cc1nnc(Nc2ccccc2)o1`: the TGI is more than 100 µM.

Take `COc1cc(O)c(/C=N/N=C(\N)NO)c(OC)c1`: the TGI was more than 10 µM.
